Data published in US20030050248A1 (priority 2000, published 2003).
Converted amounts (≈) assume the structure as drawn. Ends that are not written are not given here.

Assays:
S. aureus [1] = assay: Mouse model, Staph mixed with drug prior to IP injection; type: in vivo, mice; settings: for % Survival at 24 hr.: mixed with Staph prior to IP injection
Description: (§1) The assay was carried out by injecting a fixed amount of a S. aureus culture, typically containing from about 5×10^9 cells from an early exponential growth stage culture, by intraperitoneal (IP) injection into mice, based on the method described by Thakker et al., 1998.
In one study, the S. aureus was mixed with VIF-1 or FTB, prior to IP injection.

RNAIII [2] = type: cell-based, S. aureus
S. epidermidis (51625) = type: cell-based
S. aureus [3] = assay: Mouse model, Staph injected IP 20 min prior to drug injection (IP); type: in vivo, mice; settings: for % Survival at 24 hr.: 20 min after Staph
Description: as §1
In another approach, S. aureus was injected IP 20 minutes prior to IP injection of VIF-1 or FTB.
The commonly used anti-Staphylococcal antibiotics, methicillin and vancomycin, were tested in this model.

S. aureus [4] = tested on: S. aureus
S. aureus [5] = type: cell-based
S. haemolyticus = type: cell-based
RNAIII [6] = settings: reported by Balaban et al., 1998; cited from earlier work

Compound	% Survival at 24 hr. (S. aureus [1]; 0.2 mg/kg) [%]	% Survival at 24 hr. (S. aureus [1]; 1 mg/kg) [%]	% Survival at 24 hr. (S. aureus [1]; 2 mg/kg) [%]	% Survival at 24 hr. (S. aureus [1]; 5 mg/kg) [%]	Number of mice that survived at 24 hours post-injection (in words) (S. aureus [1]; VIF-1 3 or 15 mg/kg, FTB 1, 2 or 5 mg/kg)	Inhibition of RNA III activation (RNAIII [2]) [µg/mL]	IC50, α-toxin production (S. epidermidis (51625)) [µg/mL]	% Survival at 24 hr. (S. aureus [3]; 2 mg/kg IP) [%]	% Survival at 24 hr. (S. aureus [3]; 10 mg/kg IP) [%]	Number of mice that survived at 24 hours post-injection relative to vehicle (in words) (S. aureus [3]; VIF-1 20 or 15 mg/kg, FTB 10 mg/kg)	IC50, α-toxin production (S. aureus [4]) [µg/mL]	Inhibition of α-Hemolysin production (S. aureus [4])	Inhibition of α-toxin production (in words) (S. aureus [4])	Inhibition of TSST-1 (S. aureus [5]) [µg/mL]	IC50, α-toxin production (S. warneri) [µg/mL]	IC50, α-toxin production (S. haemolyticus) [µg/mL]	Inhibition of induction of RNAIII (in words) (RNAIII [6])	Inhibition of RNAIII induction (in words) (RNAIII [2])	Inhibition of α-toxin / virulence factor production (in words) (S. aureus [4])
CC(C)(C)OC(=O)n1cc(C[C@H](NC(=O)OCC2c3ccccc3-c3ccccc32)C(=O)O)c2ccccc21 [Reference #35, Fmoc-L-Trp(Boc)-OH]	0	83	67	83	effective to significantly increase the number of mice that survived	1.4	0.5 (≈ 0.95 µM)	25	71	effective to significantly increase the number of mice that survived	0.8 (≈ 1.52 µM)	1.2 (13) μg/ml	inhibited α-toxin production	5.0	0.6 (≈ 1.14 µM)	0.6 (≈ 1.14 µM)	–	–	–
ProCysThrAsnPhe (PCTNF; printed: ProCysThrAsnPhe) [peptide 1]	–	–	–	–	–	–	–	–	–	–	–	–	–	–	–	–	inactive	–	–
YSPWTNF [PEP, reference compound]	–	–	–	–	–	–	–	–	–	–	–	–	–	–	–	–	inhibit induction of RNAIII as effectively as RIP	no significant activity	no significant activity
